According to patent US20210038577A1, “THIOREDOXIN REDUCTASE INHIBITORS FOR USE IN THE TREATMENT OF CANCER” (Cinda Pharma AB, priority 2018, published 2021):

Legend:
MDA-MB-453 cells = experiment: CellQuanti-Blue cell viability assay, MDA-MB-453; assay type: cell-based
Method: Cell viability was then assessed using the CellQuanti assay. Relative cell viability was determined using DMSO only and blank controls.
Cells were plated at 2000 cells/well into 96-well plates in media containing 10% FBS. […] CellQuanti-Blue cell viability reagent was added to each well and the plates were subsequently incubated at 37° C. for 3 hours. Viability was determined fluorometrically using an Enspire plate reader […] excitation: 530 nm, emission: 590 nm. Viability was normalized to DMSO controls and blank wells with media.

[1] = system: immune cells isolated from human blood donors (neutrophils, PBMC, monocytes, CD8+, CD4+, Tregs); experiment: Viability of isolated immune cells (MTT assay); assay type: cell-based; conditions: 24 h, up to 33 μM
Method: Viability of neutrophils after treatment with OT-1096 for 24 h was assessed using donated blood from a healthy volunteer (HBsAg, HIV I&II negative), (Blood collection date: 1 Jun. 2017) where neutrophils were isolated using dextran sedimentation followed by hypotonic lysis and final isolation by Histopaque 1077 (Sigma-Aldrich). Viability was assessed using an MTT assay.
Viability of PBMC (peripheral blood mononuclear cells) after treatment with OT-1096 for 24 h was assessed using donated blood from two different donors. Donor-1, a healthy volunteer (HBsAg, HIV I&II negative), (Blood collection date: 1 Jun. 2017). […] Viability was assessed using an MTT assay.
Viability of monocytes after treatment with OT-1096 for 24 h was assessed using donated blood from a healthy volunteer (HBsAg, HIV I&II negative), (Blood collection date: 8 Jun. 2017) where monocytes was isolated by Histopaque 1077 (Sigma-Aldrich) followed by purification with MiniMACS system of ‘Miltenyi Biotec’ using CD14 microbeads (Cat No. 130-050-201). Viability was assessed using an MTT assay. […]
Viability of CD4+ cells after treatment with OT-1096 for 24 h was assessed using donated blood from a healthy volunteer (HBsAg, HIV I&II negative) where CD4+ cells were isolated by Histopaque 1077 (Sigma-Aldrich) followed by purification with MiniMACS system of ‘Miltenyi Biotec’ using CD4+ T Cell Isolation Reagent (Cat No. 130-096-533). […]

[2] = system: 4T1-luc2 murine tumor cells; experiment: 4T1-luc2 tumors in mammary fat pad of immunocompetent BALB/c mice; assay type: in vivo; conditions: 5 mg/kg 5/2 for 15 days, bioluminescence
Method: Female BALB/c immunocompetent mice were implanted with 1×10^5 4T1-luc2 murine tumor cells into the mammary fat pad. Upon growth of the tumors between 60-90 mm^3 the animals were selected for imaging. Mice were randomized and enrolled for treatment based on imaging flux values. Mice were treated once daily with 5 mg/kg of either OT-1096 or vehicle control using a 5/2 (five days on, two days off) dosing protocol. Upon days 1, 8, and 15 whole body imaging was performed on the mice to follow tumor cell luminescence. Analysis consists of primary tumor luminescence in mice. Each mouse was normalized to its own baseline luminescence from day 1. […] Data is represented as mean±SEM. Statistical significance (p<0.05) was determined using a Mann-Whitney test. The relative luminescence flux for mice treated with OT-1096 was significant compared to vehicle at day 15.
Athymic nude mice were inoculated orthotopically with 5×10^6 MDA-MB-231 breast cancer cells into the mammary fat pad, and randomized for treatment when tumors reached an average volume of 80-120 mm^3 (N=12 in each group). […] Xenograft tumor volume was assessed using caliper measurements for 25 days. […] Xenograft tumor volume was assessed using caliper measurements for 25 days. […] Statistical significance (p<0.05) was determined using a Two-way repeated measures ANOVA with Sidak's multiple comparison test. […]

SMILES | sensitivity of MDA-MB-453 cells over time of exposure (MDA-MB-453 cells; 24, 48, 72 hours (FIG. 2B)) | potency relative to Iniparib in MDA-MB-453 cells (MDA-MB-453 cells; CellQuanti-Blue, 24, 48 or 72 hours) | cytotoxicity in isolated immune cell populations [1] | % TGI [2] [%]
COc1ccc([N+](=O)[O-])c(S(=O)(=O)c2ccc(Cl)cc2)n1 [OT-1000, 2-((4-Chlorophenyl)sulfonyl)-6-methoxy-3-nitropyridine] | increasingly sensitive | more potent | – | –
CCCCCCCCS(=O)(=O)c1nc(OC)ccc1[N+](=O)[O-] [OT-1096, 6-methoxy-3-nitro-2-(octylsulfonyl)pyridine] | – | – | No (or low) cytotoxicity | 54
